According to paper PMC12040169 (PLOS Biology, 2025):

test: in vitro; conditions: human, hela cells, % viability

In order of falling viability at 28.5 h, 10 µM:
1. O=C(Cc1c[nH]c2ccccc12)N1CCC(F)CC1 [CBK200274]  118%
2. CN(C)C(=O)C1(c2ccccc2)CCNC1 (stereo not drawn) [CBK023394C]  114%
3. O=C(c1ccc2[nH]ccc2c1)N1CCN(CC2CCOC2)CC1 (stereo not drawn) [CBK304866]  111%
4. CC(C)NC(=O)[C@H]1O[C@H](CCN2CCOCC2)CC[C@@H]1O [CBK288720]  108%
5. Cc1nc(C(F)(F)F)ccc1C(=O)N1CCCC1c1ccc[nH]1 (stereo not drawn) [CBK306328]  107%
6. COCc1nc(C(=O)Nc2ccc(NC(C)=O)cc2C(F)(F)F)cs1 [CBK306298]  107%
7. Cc1ccc(N(C(=O)COc2ccc(C(C)(C)C)cc2)C2C=CS(=O)(=O)C2)cc1 (stereo not drawn) [CBK265811]  105%
8. N#Cc1sc(N)c2ccc(-c3ccncc3)nc12 [CBK019761]  105%
9. Cc1cc(C)[n+](-c2nccs2)c(C)c1 [CBK008782G]  103%
10. Cc1cc(NS(=O)(=O)c2cc(C(=O)O)c(Cl)cc2F)n(C)n1 [CBK067260]  102%
11. O=C(CSc1ccc2nnc(-c3cccnc3)n2n1)c1ccccc1 [CBK287624]  100%
12. COc1ccc(C[C@@H]2NC(=O)[C@H]3CN(C(=O)Nc4cccc(OC)c4)CCN3C2=O)cc1 [CBK289617]  98.9%
13. NC(=O)COc1ccc(C2Nc3ccccc3C(=O)N2C2CC2)cc1 (stereo not drawn) [CBK295198]  98.2%
14. CCOC(=O)c1cnn2c(N)c(C(N)=O)nnc12 [CBK023694]  98.2%
15. O=C(O)CCCC(=O)OCc1ccco1 [CBK260933]  98.1%
16. CS(=O)(=O)N1CC2(CCN(CCc3c[nH]c4ccccc34)CC2)c2ccccc21 [CBK084017T]  97.9%
17. Cn1c(SCC(=O)N2CCN(c3cccc(Cl)c3)CC2)nnc1-c1cccc([N+](=O)[O-])c1 [CBK266264]  97.8%
18. O[C@@H]1CN(Cc2ccccc2F)CC[C@H]1N1CCCC1 [CBK282934]  96.9%
19. CC(C)c1ccc(CNC(=O)C2(c3ccccc3)CCCC2)cc1 [CBK161531]  96.8%
20. CC(=O)N1c2ccc(C(O)CN3CCCC(C)C3)cc2CC1C (stereo not drawn) [CBK282922]  96.5%
21. COc1ccc(Nc2nc(-c3cccc(N)c3)cnc2N)cc1 [CBK063585]  95.9%
22. COC1C(O)C(CO)OC1n1cnc2c(N)nc(N)nc21 (stereo not drawn) [CBK201241]  95.4%
23. CN1CCN(CCC(=O)Nc2ccc3c(c2)CCC3)CC1 [CBK264197]  95.3%
24. NC1=NN2C(=C(c3ccc(O)c(C(=O)O)c3)NN2c2ccccc2)N1 [CBK025631]  95.2%
25. O=c1c(-c2ccccc2)c(C(F)(F)F)oc2c(CN3CCN(Cc4ccccc4)CC3)c(O)ccc12 [CBK265808]  95%
26. NC(=O)c1ccc(C#Cc2ccccc2)o1 [CBK009809]  94.8%
27. O=C(c1n[nH]c2ccccc12)N1CCc2ccccc2C1 [CBK200330]  94.4%
28. CCc1ccc(CNC(=O)Cn2nnc(-c3ccc(CN4CCC(C)CC4)cn3)n2)cc1 [CBK153928C]  93.6%
29. CS(=O)(=O)Nc1cc2ccccc2c(-c2cccc(C(F)(F)F)c2)n1 [CBK085754]  92.9%
30. Fc1cccc(-c2nc(-c3cccnc3)no2)c1 [CBK270260]  92.6%
31. COc1cccc(Oc2nccnc2-c2ccsc2)c1 [CBK106762]  92.1%
32. Cc1nn(C)cc1-c1cncn1CC(C)N1CCC(C)CC1 (stereo not drawn) [CBK281789]  91.4%
33. Cc1ccc(CN2CCC3(CCCNC3=O)CC2)cc1 [CBK284822]  90.6%
34. COc1ccccc1C1(NC(=O)CCn2nccc2C)CCCC1 [CBK283628]  89.7%
35. COc1ccc(CN(CCCN2CCOCC2)C(=O)NCc2ccc(C#N)cc2)cc1OC [CBK159125]  89%
36. Cc1nc(COC(=O)c2ccc(C#N)c(C)n2)cs1 [CBK297775]  88.9%
37. Cc1n[nH]c(-c2ccccc2NC(=O)Cc2sc(C)nc2-c2cccs2)n1 [CBK297737]  88.5%
38. Cc1c(C(C)NCC(C)(C)N(C)C)cnn1-c1ccc(C#N)cc1 (stereo not drawn) [CBK306447]  87.7%
39. CCCC(=O)NC(c1ccc(OC)cc1)c1cc(Cl)c2cccnc2c1O (stereo not drawn) [CBK293944]  87.4%
40. CC(C)C(=O)Nc1ccc2c(c1)C(=O)N(CCC(=O)O)C2=O [CBK286544]  86.1%
41. CCOc1ccc(-c2cc(C(=O)NCc3cc(OC)ccc3OC)n[nH]2)cc1 [CBK288116]  85.7%
42. Cc1cc(C2CCCCCN2C(=O)c2cc(C(C)C)on2)on1 (stereo not drawn) [CBK281733]  79.7%
43. COc1ccc(C)cc1-n1ccc(C(=O)NC(C)(C)C)n1 [CBK306315]  78.8%
44. Cc1nn(CC(=O)N2CCCCC2C)c(=O)c2cc3occc3n12 (stereo not drawn) [CBK283622]  76.7%

same assay, conditions: human, hela cells, % viability, bulk resorufin, single well

`CCOC(=O)C1(c2ccccc2)CCN(C(=O)COc2ccccc2OC)CC1` [CBK132183] gave a viability at 28.5 h, 10 µM of 87.1%.
